Experimental findings from publication PMC9232612, “A phase 1b randomised controlled trial of a glucagon-like peptide-1 and glucagon receptor dual agonist IBI362 (LY3305677) in Chinese patients with type 2 diabetes” (Nature Communications, 2022) are described below.

For data set [1], the system named is Chinese patients with T2D. Briefly: Mixed-meal tolerance test (MTT) and fasting: total GLP-1. In kind it is in vivo, human. The note with it: week 12; patients receiving IBI362. As for the experimental part: (§1) HbA1c (2200101, Bio-Rad, USA), blood glucose (05168791190, Roche Diagnostics, Germany), insulin (12017547122, Roche Diagnostics, Germany), C peptide (03184897190, Roche Diagnostics, Germany), total GLP-1 (GLP-1 [7–36] amide and its metabolite, GLP-1 [9–36] amide, 10-1278-01, Mercodia AB, Sweden) and OXM (AL-139, AnshLabs, USA) tests were performed according to the manufactures’ instruction manuals in a central laboratory (KingMed Diagnostics, Guangzhou, China). HbA1c was measured using a Bio-rad D-100 Haemoglobin Testing System (Bio-rad). Blood glucose was measured using a Roche Cobas c702 analyser (Roche Diagnostics). Insulin and C peptide were measured using a Roche […] analyser (Roche Diagnostics). GLP-1 and OXM were measured using a Tecan Infinite M Plex microplate reader (TECAN).
(§2) Standard non-compartmental pharmacokinetics methods were used to analyze IBI362 plasma concentration data using Pkanalix 2020R1 (Lixoft, Antony, France). Secondary efficacy outcomes included change from baseline to week 12 in HbA1c, fasting plasma glucose (FPG), fasting insulin levels, change from baseline to week 12 in post-mixed-meal tolerance test (post-MTT) glucose, insulin, C peptide, GLP-1 and OXM levels, as well as seven-point self-measured blood glucose (SMBG) profile. […]
3. […]
(§3) bag is added and mixed well. The time is counted from the first bite of eating. […]

A short description of data set [2]: Physical and chemical characteristics of drug substance (solubility, PI). The class given is physicochemical. The source says: (§4) IBI362 Innovent Biologics (Suzhou) Co., Ltd. CIBI362A101
IBI362 or placebo, the patient, the investigator, and all personnel involved in the clinical evaluation will be blinded to the treatment from the randomization to database locked, […]
Different drug numbers corresponded to random numbers after randomization in the IWRS, and the unblinding information remained unknown to patients and investigators throughout the trial. The randomization table will be kept by a designated […]
The study drug and placebo will be packaged, labeled, administered at the same time, and will have the appearance, taste, and smell exactly the same to hide the real situation of the treatment drug.
If necessary for the safety of the subject, emergency unblinding must be performed […]
If a patient is randomized to receive active control, the patient will not be blinded.
Sponsor will not be blinded during this study.
5.2.1 Physical and Chemical Characteristics of Drug Substance
Molecular weight: 4560.32 Dalton
Description: White to off-white powder
Solubility: Vehicle: 20 mM Tris buffer pH 8.0 and
Solubility: Not less than 10 mg/mL at
Solubility Description: Sparingly or
5.2.2 Study Drug Strength and Manufacturer
IBI362 is formulated as IBI362 for injection in a strength of 2 mg per vial and […]
The strength of the formulation used in this study is 2 mg/vial; Manufacturer: […]

In data set [3] the test system is Chinese patients with T2D. As to the kind of experiment: Mixed-meal tolerance test (MTT) and fasting: OXM. In kind it is in vivo, human. The note with it: week 12; patients receiving IBI362. As for the experimental part: as §1, §2, §3
Data set [4] in a line: Immunogenicity: anti-IBI362 antibody (ADA) and neutralizing antibody. In kind it is in vivo, human.
Excerpt: Standard non-compartmental pharmacokinetics methods were used to analyze IBI362 plasma concentration data using Pkanalix 2020R1 (Lixoft, Antony, France). Secondary efficacy outcomes included change from baseline to week 12 in HbA1c, fasting plasma glucose (FPG), fasting insulin levels, change from baseline to week 12 in post-mixed-meal tolerance test (post-MTT) glucose, insulin, C peptide, GLP-1 and OXM levels, as well as seven-point self-measured blood glucose (SMBG) profile.
Safety analyses were done in the safety population (defined as all patients who received at least one dose of the study treatment). Pharmacokinetic analyses were done in the pharmacokinetic population (defined as all patients who received at least one dose of IBI362 and had at least one valid plasma concentration assessment). Efficacy analyses were done in the efficacy population (defined as all patients who received at least one dose of the study treatment and had baseline and at least one post-baseline HbA1c assessment). Immunogenicity analyses were done in the immunogenicity population (defined as all patients who received at least one dose of the study treatment and had at least one post-baseline ADA result).
as §4
[…] Within 1 hour before D57 administration in Week 9; […]

Each structure is given as a SMILES string.

As to `CC(C)C[C@H](NC(=O)[C@H](CC(C)C)NC(=O)[C@H](Cc1c[nH]c2ccccc12)NC(=O)[C@H](CCC(=O)O)NC(=O)[C@@H](NC(=O)[C@H](Cc1ccccc1)NC(=O)[C@H](CCC(=O)O)NC(=O)[C@H](CCCCNC(=O)COCCOCCNC(=O)COCCOCCNC(=O)CC[C@H](NC(=O)CCCCCCCCCCCCCCCCCCC(=O)O)C(=O)O)NC(=O)[C@H](C)NC(=O)[C@H](CCCCN)NC(=O)[C@H](CCCCN)NC(=O)[C@H](CCC(=O)O)NC(=O)[C@H](CC(=O)O)NC(=O)[C@H](CC(C)C)NC(=O)[C@H](Cc1ccc(O)cc1)NC(=O)[C@H](CCCCN)NC(=O)[C@H](CO)NC(=O)[C@H](Cc1ccc(O)cc1)NC(=O)[C@H](CC(=O)O)NC(=O)[C@H](CO)NC(=O)[C@@H](NC(=O)[C@H](Cc1ccccc1)NC(=O)[C@@H](NC(=O)CNC(=O)[C@H](CCC(N)=O)NC(=O)C(C)(C)NC(=O)[C@@H](N)Cc1c[nH]cn1)[C@@H](C)O)[C@@H](C)O)C(C)C)C(=O)N[C@@H](CCC(=O)O)C(=O)NCC(=O)NCC(=O)N1CCC[C@H]1C(=O)N[C@@H](CO)C(=O)N[C@@H](CO)C(=O)NCC(N)=O` [IBI362], the “post-MTT GLP-1 excursion” value in data set [1] was “markedly suppressed”. The same molecule registered a PI in data set [2] (drug substance) of 5.2. Moreover, the Solubility entry in data set [2] (vehicle 20 mM Tris buffer pH 8.0 and 150 mM sodium chloride, 25℃) is “Not less than 10 mg/mL”. Also, the “post-MTT OXM excursion” value in data set [3] is “markedly suppressed”. Besides, the “patients who developed anti-IBI362 antibody” value in data set [4] (all IBI362 cohorts, n=24 (four patients)) is 16.7%. Moreover, the neutralizing antibodies result in data set [4] (post-baseline samples) is on record as “No neutralizing antibodies were detected”.
